Several values for one entry are separate records, joined by “and”; a condition that tells them apart may be missing. Equal entries are not always repeated.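 Protocol summary: plate cells (96-well), add compound at 5 concentrations, incubate 48 h, interpolate endpoints linearly. The concentration for 50% growth inhibition is given as GI50. TGI marks complete inhibition of growth.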
Experiments:
Experiment in all cases: NCI-60 cell line screen, 48 h
[1] = test system: HCT-15 colon
[2] = test system: UACC-62 melanoma
[3] = test system: RXF 393 renal
[4] = test system: KM12 colon
[5] = test system: BT-549 breast
[6] = test system: SF-268 CNS
[7] = test system: A549 NSCLC
[8] = test system: HOP-62 NSCLC
[9] = test system: OVCAR-8 ovarian
[10] = test system: CCRF-CEM leukemia

Compound	TGI [1]	TGI [2]	TGI [3]	TGI [4]	TGI [5]	TGI [6]	TGI [7]	TGI [8]	TGI [9]	GI50 [1]	GI50 [2]	GI50 [3]	GI50 [6]	GI50 [7]	GI50 [8]	GI50 [9]	TGI [10]	GI50 [10]	GI50 [4]	GI50 [5]
COc1cc2ccc(/C=C\[N+](=O)[O-])cc2cc1OC	17.2 µM	21.7 µM	3.51 µM	19.3 µM	5.74 µM	11 µM	29.8 µM	16.1 µM	9.72 µM											
O=C([CH-]C(=O)c1ccccc1)c1ccccc1.O=C([CH-]C(=O)c1ccccc1)c1ccccc1.[La+3].[OH-].[OH3+]	48.1 µM	44.7 µM	29.6 µM			59.5 µM	55.2 µM	41.9 µM	65.4 µM	13 µM	14 µM	2.99 µM	13.3 µM	20.6 µM	10.9 µM	6.67 µM				
CC(C)C1CC[C@@H](C)C[C@@]1(O)CC(N)=O (some centres not stated)	> 100 µM	> 100 µM		> 100 µM			> 100 µM		> 100 µM											
Cc1ccc(S(=O)(=O)OC2CSS(=O)CC2OS(=O)(=O)c2ccc(C)cc2)cc1 (configuration not stated)	33.6 µM	29.2 µM	20.8 µM	31.3 µM		30.7 µM	37.9 µM	36.7 µM	22.5 µM											
Oc1c(C(Nc2cccc3cccnc23)c2ccccc2)ccc2cccnc12 (configuration not stated)		> 100 µM		> 100 µM		> 100 µM	> 100 µM	> 100 µM	21.3 µM								78.8 µM			
COC(=O)/C(C)=C(/CCC1(C)OCCO1)O[Si](C)(C)C	> 100 µM	> 100 µM	> 100 µM	> 100 µM		> 100 µM	> 100 µM	> 100 µM	> 100 µM								> 100 µM			
O=C1Nc2ccccc2/C1=C/C(=O)c1coc2c1C(=O)c1ccccc1C2=O	> 100 µM	> 100 µM	> 100 µM	> 100 µM		> 100 µM	> 100 µM		> 100 µM	> 100 µM	94.4 µM	> 100 µM	> 100 µM	> 100 µM		> 100 µM	> 100 µM	> 100 µM	> 100 µM	
CCOc1ccccc1N1C(=O)C(=O)C(c2nc3ccccc3o2)C(=O)C1=O	> 100 µM	> 100 µM				> 100 µM	> 100 µM	> 100 µM	> 100 µM								> 100 µM			
CC(C)(C)c1ccc(Oc2nccc(-c3c(-c4ccc(F)cc4)ncn3C3CCNCC3)n2)cc1	6.68 µM	7.77 µM	7.07 µM	7.61 µM	7.6 µM	7.07 µM	6.9 µM	7.88 µM	7.36 µM	3.23 µM	4.25 µM	3.22 µM	3.34 µM	3.55 µM	4.25 µM	3.72 µM			3.95 µM	4.1 µM
O=C(O)C(SC(=S)c1ccc(C(=S)SC(C(=O)O)c2ccccc2)cc1)c1ccccc1 (configuration not stated)	> 100 µM	> 100 µM	> 100 µM	> 100 µM		> 100 µM	> 100 µM	> 100 µM	> 100 µM								> 100 µM			
Cc1cc(=O)n(-c2ccccc2C)c(C)n1	> 100 µM	> 100 µM	> 100 µM	> 100 µM		> 100 µM	> 100 µM	> 100 µM	> 100 µM								> 100 µM			
CCCCOC(=O)C1C2CCC(O2)C1C(=O)OCCCC (configuration not stated)	> 100 µM	> 100 µM	> 86.8 µM	> 100 µM		> 100 µM	> 100 µM	> 100 µM	> 100 µM								> 100 µM			
COc1cc([N+](=O)[O-])c(OC)cc1-c1nc2sc(Cl)cn2c1/C(N)=N/C(=N)N	> 100 µM	35.3 µM	16.9 µM	9.16 µM	47.5 µM	11.8 µM	> 53 µM	17.3 µM		65 µM	15 µM	4.3 µM	4.17 µM	18.4 µM	6.32 µM				2.75 µM	11.4 µM
CCS(CC)(CC)CC1CCCC2=CCC(P(=O)(c3ccccc3)c3ccccc3)CC21 (configuration not stated)	21.8 µM	13.5 µM	23.2 µM	30.6 µM		26.1 µM	18 µM	32 µM	31.4 µM								31 µM			
CCOc1ccc2c(c1)[n+]([O-])c(-c1ccc(Cl)cc1)c(N)[n+]2[O-]	> 100 µM			> 100 µM		> 100 µM	> 100 µM	> 100 µM	> 100 µM											
COc1cc([C@@H]2OC[C@@H]3C(c4cc(OC)c5c(c4)OCO5)OC[C@@H]32)cc(OC)c1OC (some centres not stated)	> 100 µM	> 100 µM		> 100 µM	> 100 µM	> 100 µM	> 100 µM	> 100 µM	> 100 µM								> 100 µM			
COc1ccc(Br)c(N/N=C2\CCCNC2=O)c1	> 100 µM	> 100 µM		> 100 µM			> 100 µM	> 100 µM	> 100 µM								> 100 µM			
CC(=O)OCC1OC(n2cnc(C(N)=S)c2N)C(OC(C)=O)C1OC(C)=O (configuration not stated)	> 100 µM	> 100 µM		> 100 µM	> 100 µM	> 100 µM	> 100 µM	> 100 µM	> 100 µM								> 100 µM			
O=[N+]([O-])c1cc(C(F)(F)F)cc([N+](=O)[O-])c1CCl		1.21 µM	5.09 µM	4.92 µM		27.2 µM	24.7 µM	30.6 µM	4.91 µM								0.722 µM			
Oc1ccccc1/C=C/c1csnn1	> 94.3 µM	> 100 µM	> 100 µM	> 100 µM		> 100 µM	> 100 µM	> 100 µM	> 100 µM								> 100 µM			
CCC(C)(CC(C)(C)C(=O)NCC(=O)NC(Cc1ccccc1)C(=O)NC(Cc1ccccc1)C(=O)NCC(=O)NC1CC(OC2CC(O)(C(=O)CO)Cc3c(O)c4c(c(O)c32)C(=O)c2c(OC)cccc2C4=O)OC(C)C1O)C(=O)NCC(C)O (configuration not stated)	1.5 µg/mL	> 150 µg/mL	> 150 µg/mL	> 150 µg/mL				> 150 µg/mL	> 150 µg/mL	1.5 µg/mL	75 µg/mL	> 150 µg/mL			63.7 µg/mL	138 µg/mL	> 150 µg/mL	3.35 µg/mL and 98.9 µg/mL	66.3 µg/mL	
